Assay results: publication PMC12043042, “Pseudo‐Ring Methodology to Control the Conformations of Macrocyclic Peptides” (Chemistry (Weinheim an Der Bergstrasse, Germany), 2025)
“Also recorded” adds a separate entry of the source. Where a SMILES comes first, the peptide text is derived from it.

How the values were obtained:
Type in all cases: physicochemical
[1] = Solubility in DMSO / organic solvents, determined visually; conditions: room temperature, concentration of 10 mg/mL (ca. 10 mg/mL for NMR)
Source text: We considered building blocks 1–3 as Fmoc‐protected pseudo‐ring building blocks that could be implemented into the Fmoc SPPS approach. The building block 1 was readily prepared from 3‐methyl SA (see Supporting Information). […] The building block 3 was made from commercially available 7‐carboxyindole over seven steps. This procedure was scalable and required no chromatographic purifications (see Supporting Information). With 1 and 3 in hand, we turned our attention towards their application in SPPS. […] Through cyclization of the linear pentafluorophenol (PFP) ester at high dilution in DMF with DIPEA, cyclic peptides 4 (25% overall yield) and 5 (28% overall yield) were obtained from building block 1. The cyclic peptides 6 (17% overall yield) and 7 (21% overall yield) were prepared from building block 3 (Figure 3a,b). At the same time, we synthesized cyclic peptide controls devoid of the pseudo‐ring core through a conventional Fmoc SPPS strategy (Figure 3c) with a Gly‐Gly in place of the pseudo‐ring scaffold. Similarly, we prepared peptides 10 and 11, which represent depeptidized homodetic sequences that contain a backbone‐embedded arene that lacks the X─H pseudo‐ring hydrogen bond donor (Figure 3c). To draw further comparison between pseudo‐ring‐containing and regular heterocycle‐containing peptides, we attempted to synthesize the indole‐containing analogues of peptides 6 and 7 (see Supporting Information). […] During the preparation of cyclic peptides 4–11, we noticed that macrocycles devoid of a pseudo‐ring were frustratingly insoluble in all organic solvents as well as in water. As result, these peptides (8–11) were purified by hot trituration in methanol/water. The solubilities/lipophilicities of peptides 4–11 will be discussed later in this paper. […]
Reversed‐phase HPLC retention times have proven to be a useful metric in determining the permeability of peptide macrocycles, as longer retention times typically equate to lower aqueous solubility, lower polarity, and increased lipophilicity.^[ [34], [35], [36], [37] ^] We were keen to use these HPLC retention times as a tool to assess the modulation of lipophilicity of the pseudo‐ring‐containing macrocycles. At the same time, we were interested in collecting solubility measurements for each macrocycle in both organic solvents (DMSO) as well as in water by visually determining each macrocycle's solubility. Our analysis began with the proteinogenic peptides 8 and 9 (Figure 6a). From the NMR studies, we recognized that these peptides had extremely poor solubility in d6 ‐DMSO (Figure 6c). […] HPLC analysis of these peptides confirmed that proteinogenic sequences correspond to extremely polar peptides. On a 15‐min HPLC gradient (from 5% MeCN/H2O to 95% MeCN/H2O with 0.1% formic acid), macrocycles 8 and 9 had HPLC retention times of 5.3 min and 4.8 min, respectively. Both 8 and 9 contain similar hydrogen bonding patterns, which is reflected in their similar hydrophilicities and HPLC retention times. Similar results were obtained with peptides 10 and 11 (Figure 6a). […] We were keen to decipher whether the inclusion of either “open” or “closed” pseudo‐ring residues could lead to noticeable solubility and lipophilicity differences. […] This increase in […] likely results from the now exposed polar phenolic OH group paired with the disrupted IMHB networks that were present within the backbone of 4. […] With this in mind, we began analyzing our dicarbonyl‐containing macrocycles 6 and 7. […] Similarly, this marks the first instance in which we have been able to access a class of macrocycles with chameleonic behavior whereby we can reliably access both “open” and “closed” forms using pseudo‐rings. […] Unique to this series of macrocycles, the “open” pseudo‐ring macrocycle 7 is extremely hydrophilic.

[2] = Reversed-phase HPLC retention time as measure of lipophilicity; conditions: 15-min gradient from 5% MeCN/H2O to 95% MeCN/H2O with 0.1% formic acid, longer time = more lipophilic
Source text: Reversed‐phase HPLC retention times have proven to be a useful metric in determining the permeability of peptide macrocycles, as longer retention times typically equate to lower aqueous solubility, lower polarity, and increased lipophilicity.^[ [34], [35], [36], [37] ^] We were keen to use these HPLC retention times as a tool to assess the modulation of lipophilicity of the pseudo‐ring‐containing macrocycles. At the same time, we were interested in collecting solubility measurements for each macrocycle in both organic solvents (DMSO) as well as in water by visually determining each macrocycle's solubility. Our analysis began with the proteinogenic peptides 8 and 9 (Figure 6a). From the NMR studies, we recognized that these peptides had extremely poor solubility in d6 ‐DMSO (Figure 6c). […] HPLC analysis of these peptides confirmed that proteinogenic sequences correspond to extremely polar peptides. On a 15‐min HPLC gradient (from 5% MeCN/H2O to 95% MeCN/H2O with 0.1% formic acid), macrocycles 8 and 9 had HPLC retention times of 5.3 min and 4.8 min, respectively. Both 8 and 9 contain similar hydrogen bonding patterns, which is reflected in their similar hydrophilicities and HPLC retention times. Similar results were obtained with peptides 10 and 11 (Figure 6a). […]

[3] = Solubility in water, determined visually; conditions: concentration of 10 mg/mL
Source text: We considered building blocks 1–3 as Fmoc‐protected pseudo‐ring building blocks that could be implemented into the Fmoc SPPS approach. The building block 1 was readily prepared from 3‐methyl SA (see Supporting Information). […] The building block 3 was made from commercially available 7‐carboxyindole over seven steps. This procedure was scalable and required no chromatographic purifications (see Supporting Information). With 1 and 3 in hand, we turned our attention towards their application in SPPS. […] Through cyclization of the linear pentafluorophenol (PFP) ester at high dilution in DMF with DIPEA, cyclic peptides 4 (25% overall yield) and 5 (28% overall yield) were obtained from building block 1. The cyclic peptides 6 (17% overall yield) and 7 (21% overall yield) were prepared from building block 3 (Figure 3a,b). At the same time, we synthesized cyclic peptide controls devoid of the pseudo‐ring core through a conventional Fmoc SPPS strategy (Figure 3c) with a Gly‐Gly in place of the pseudo‐ring scaffold. Similarly, we prepared peptides 10 and 11, which represent depeptidized homodetic sequences that contain a backbone‐embedded arene that lacks the X─H pseudo‐ring hydrogen bond donor (Figure 3c). […]

## CC[C@H](C)[C@@H]1NC(=O)c2cccc(c2O)CNC(=O)[C@H](Cc2ccccc2)NC(=O)CNC(=O)[C@H](C)NC1=O [compound 4] (HELM PEPTIDE1{A.G.F.[O=C(c1cccc(CN[*:1])c1O)[*:2]].I}$PEPTIDE1,PEPTIDE1,1:R1-5:R2$$$V2.0)
[1]
  Solubility in DMSO (d6-DMSO): readily soluble; also recorded: much more soluble in DMSO than their non‐pseudo‐ring counterparts
[2]
  HPLC retention time: 7.7 min

## C[C@@H]1NC(=O)[C@@H]2CCCN2C(=O)c2cccc(c2O)CNC(=O)[C@H](Cc2ccccc2)NC(=O)CNC1=O [compound 5] (HELM PEPTIDE1{A.G.F.[O=C(c1cccc(CN[*:1])c1O)[*:2]].P}$PEPTIDE1,PEPTIDE1,1:R1-5:R2$$$V2.0)
[1]
  Solubility in DMSO (d6-DMSO): readily soluble; also recorded: much more soluble in DMSO than their non‐pseudo‐ring counterparts

## C[C@@H]1NC(=O)[C@@H]2CCCN2C(=O)c2cccc(c2)CNC(=O)[C@H](Cc2ccccc2)NC(=O)CNC1=O [compound 11] (HELM PEPTIDE1{[O=C(c1cccc(CN[*:1])c1)[*:2]].P.A.G.F}$PEPTIDE1,PEPTIDE1,1:R1-5:R2$$$V2.0)
[1]
  Solubility in DMSO (d6-DMSO): could be solubilized in d6 ‐DMSO at room temperature only after sonication

## C[C@@H]1NC(=O)[C@@H]2CCCN2C(=O)c2cccc(c2N)C(=O)CNC(=O)[C@H](Cc2ccccc2)NC(=O)CNC1=O [compound 7] (HELM PEPTIDE1{A.G.F.[Nc1c(C(=O)CN[*:1])cccc1C(=O)[*:2]].P}$PEPTIDE1,PEPTIDE1,1:R1-5:R2$$$V2.0)
[1]
  Solubility in DMSO (d6-DMSO): highly soluble
[3]
  Solubility in H2O: highly soluble

## C[C@@H]1NC(=O)[C@@H]2CCCN2C(=O)CNC(=O)CNC(=O)[C@H](Cc2ccccc2)NC(=O)CNC1=O [compound 9] (HELM PEPTIDE1{A.G.F.G.G.P}$PEPTIDE1,PEPTIDE1,1:R1-6:R2$$$V2.0)
[1]
  Solubility in DMSO (d6-DMSO): could not be fully solubilized

## CC[C@H](C)[C@@H]1NC(=O)c2cccc(c2)CNC(=O)[C@H](Cc2ccccc2)NC(=O)CNC(=O)[C@H](C)NC1=O [compound 10] (HELM PEPTIDE1{[O=C(c1cccc(CN[*:1])c1)[*:2]].I.A.G.F}$PEPTIDE1,PEPTIDE1,1:R1-5:R2$$$V2.0)
[1]
  Solubility in DMSO (d6-DMSO): poorly soluble

## CC[C@H](C)[C@@H]1NC(=O)c2cccc(c2N)C(=O)CNC(=O)[C@H](Cc2ccccc2)NC(=O)CNC(=O)[C@H](C)NC1=O [compound 6] (HELM PEPTIDE1{A.G.F.[Nc1c(C(=O)CN[*:1])cccc1C(=O)[*:2]].I}$PEPTIDE1,PEPTIDE1,1:R1-5:R2$$$V2.0)
[1]
  Solubility in DMSO (d6-DMSO): highly soluble

## CC[C@H](C)[C@@H]1NC(=O)CNC(=O)CNC(=O)[C@H](Cc2ccccc2)NC(=O)CNC(=O)[C@H](C)NC1=O [compound 8] (HELM PEPTIDE1{A.G.F.G.G.I}$PEPTIDE1,PEPTIDE1,1:R1-6:R2$$$V2.0)
[1]
  Solubility in DMSO (d6-DMSO): could not be fully solubilized
[2]
  HPLC retention time: 5.3 min
